From patent publication US8128802B2, “Analysis apparatus and analysis method for glycosylated hemoglobin” (OJI Paper Co., Ltd, priority 2005, dated 2012)

Columns and labels:
Assay type in all cases: biochemical
[1] = tested on: fructosyl amino acid oxidase; assay: Substrate specificity of fructosyl amino acid oxidase-immobilized column (Example 3); conditions: buffers pH 8.0; for Relative response value: normalized to 100 for the response to fructosyl glycine, 37° C., dialysis module
Source text: The buffer was removed as far as possible. […] The support immobilized enzyme was packed into the column (internal diameter: 3.5 mm, length: 30 mm) to give the fructosyl amino acid oxidase-immobilized column. In the assay apparatus shown in FIG. 2, the flow type calorimeter (16), the protease-immobilized column (14) and the first immobilized enzyme column (17) were not disposed, and the electrode for glucose was placed in the electrode for hydrogen peroxide (18), the fructosyl amino acid oxidase-immobilized column in the second immobilized enzyme column (19), and the electrode for hydrogen peroxide in the electrode for hydrogen peroxide (20). The buffer B was pumped out from the buffer tank (24) using the pump (25), and a 100 μL portion of the sample was injected using the valve (4). […] Since the buffer A was pumped out from the buffer tank (1) by the pump (2), the components with low molecular weight in the sample dialyzed in the dialysis module (27) passed through the electrode for glucose (18), the fructosyl amino acid oxidase-immobilized column (19) and the electrode for hydrogen peroxide (20), and hydrogen peroxide from glucose and fructosyl amino acid in the sample was detected. […] The temperature in the incubator was 37° C. The substrate specificity of fructosyl amino acid oxidase-immobilized column for various fructosyl amino acids, fructosyl peptides, amino acids and sugars was examined using the assay apparatus mentioned in (4) when pH of the buffers was 8.0.

[2] = tested on: fructosyl amino acid oxidase; assay: Characteristics of fructosyl amino acid oxidase-immobilized column (Example 5); conditions: sample concentration 10 mM; buffer pH 8.0, 37° C.
Experimental: FIG. 1 was the flow type assay apparatus with one flow path. The buffer A was pumped out from the buffer tank (1) using the pump (2), and a 5 μL portion of the sample was injected using the valve (4). The fructosyl amino acid oxidase-immobilized column was placed in the first immobilized enzyme column (17) and the electrode for hydrogen peroxide was placed downstream. The second immobilized enzyme column (19), the second electrode for hydrogen peroxide (20), the protease-immobilized column (14) and the flow type calorimeter (16) were not disposed. The injected sample transferred with the flowing buffer, passed through the mixing coil (15) in the incubator (13), and thus the sample temperature was adjusted and the sample was mixed with the buffer. The sample passed through the fructosyl amino acid oxidase-immobilized column (17) and the electrode for hydrogen peroxide (18), hydrogen peroxide was produced from fructosyl valine in the sample, and the change of the current was detected.
The composition of the buffer for this assay apparatus contained 100 mM phosphoric acid, 50 mM potassium chloride and 1 mM sodium azide, and its pH was 8.0.
The flow rate of the buffer was 1.0 mL/minute, and the temperature in the incubator was 37° C.
Using the assay apparatus 1 mentioned in (3), a 5 μL portion of fructosyl glycine was injected, and the characteristics of the fructosyl amino acid oxidase-immobilized column was examined.
When pH in the buffer was 7.0, 7.5, 8.0, 8.5 or 9.0, the activity in the oxidation of fructosyl glycine was measured.

[3] = tested on: fructosyl peptide oxidase; assay: Substrate specificity of fructosyl peptide oxidase-immobilized column (Example 4); conditions: buffer A pH 7.0; normalized to 100 for the response to fructosyl valine; 30° C.
Experimental: In the same way as described in Example 1 (1), 150 mg of firebrick powder (30 to 60 meshes) was formylated. The solution (200 μL) of fructosyl peptide oxidase (140 units/mL, from Kikkoman Co.) in 100 mM sodium phosphate buffer (pH 7.0) was contacted with the formylated firebrick powder, and then incubated at 0 to 4° C. for one day for the enzyme immobilization.
In the assay apparatus shown in FIG. 1, the protease-immobilized column (14), the flow type calorimeter (16) and the first immobilized enzyme column (17) were not disposed, and the electrode for glucose was placed in the electrode for hydrogen peroxide (18), the fructosyl peptide oxidase-immobilized column in the second immobilized enzyme column (19), and the electrode for hydrogen peroxide in the electrode for hydrogen peroxide (20). The buffer A was pumped out from the buffer tank (1) by the pump (2), and a 5 μL portion of the sample was injected using the valve (4). The injected sample transferred with the flowing buffer A, passed through the mixing coil (15) in the incubator (13), and thus the sample temperature was adjusted and the sample was mixed with the buffer. And then the sample passed through the downstream electrode for glucose (18), fructosyl peptide oxidase-immobilized column (19) and an electrode for hydrogen peroxide (20), hydrogen peroxide was produced from fructosyl valylhistidine in the sample, and the change of the current was detected.
The composition of the buffer A for the assay apparatus contained 100 mM phosphoric acid, 50 mM potassium chloride and 1 mM sodium azide, and its pH was 7.0.
(§1) The flow rate of the buffer was 1.0 mL/minute, and the temperature in the incubator was 30° C.
On fructosyl peptide oxidase-immobilized column, the substrate specificity for various fructosyl amino acids, fructosyl peptides, amino acids and sugars was examined using the assay apparatus mentioned in (4) when pH of the buffer A was 7.0. In the Table 4, the relative values were normalized to 100 for the response to fructosyl valine.

[4] = tested on: fructosyl peptide oxidase; assay: Substrate specificity, pH profile and stability of fructosyl peptide oxidase-immobilized column (Example 1); conditions: for Relative activity (%) pH 6.0: buffer pH 6.0; for Relative activity (%) pH 6.0 / Relative activity (%) pH 7.0 / Relative activity (%) pH 8.0: normalized to 100 for the response to fructosyl valine at each pH, 30° C.; for Relative activity (%) pH 7.0: buffer pH 7.0; for Relative activity (%) pH 8.0: buffer pH 8.0
Experimental: Firebrick powder (150 mg, 30 to 60 meshes) was thoroughly dried, immersed in a 10% solution of γ-aminopropyltriethoxysilane in anhydrous toluene for one hour, then thoroughly washed with anhydrous toluene and dried. The aminosilane-modified support was immersed in a 5% aqueous glutaraldehyde solution for one hour, and then thoroughly washed with distilled water, followed by substitution with 100 mM sodium phosphate buffer (pH 7.0). The buffer was removed as far as possible. A solution ([…]) of fructosyl peptide oxidase (140 units/mL, from Kikkoman Co.) in 100 mM sodium phosphate buffer (pH 7.0) was contacted with the formylated firebrick powder, and then incubated at 0 to 4° C. for one day for the enzyme immobilization. The support immobilized enzyme was packed into a column (internal diameter: 3.5 mm, length: 30 mm) to give the fructosyl peptide oxidase-immobilized column.
The buffer was pumped out from a buffer tank (1) using a pump (2), and 5 μL of a sample was injected using a valve (4). A protease-immobilized column (14), a flow type calorimeter (16), a second immobilized enzyme column (19) and a second electrode for hydrogen peroxide (20) were not placed, and a fructosyl peptide oxidase-immobilized column was placed as a first immobilized enzyme column (17), followed by an electrode for hydrogen peroxide (18) downstream thereof. The injected sample transferred with the flowing buffer, passed through a mixing coil (15) inside an incubator (13), and thus the sample temperature was adjusted and the sample was mixed with the buffer. The sample passed through the fructosyl peptide oxidase-immobilized column (17) and the electrode for hydrogen peroxide (18) to produce hydrogen peroxide from fructosyl valylhistidine in the sample, and then the change of the current was detected.
A composition of the buffer used in this assay apparatus contained 100 mM phosphoric acid, 50 mM potassium chloride and 1 mM sodium azide, and its pH was 7.0.
as §1
Using the assay apparatus described in (3), a 5 μL portion of fructosyl glycine, fructosyl valine or fructosyl valylhistidine was injected, and the characteristics of the fructosyl peptide oxidase-immobilized column was examined.
When pH of the buffer was 6.0, 7.0 or 8.0, the assay results of the activity for the oxidation of fructosyl glycine (FG), fructosyl valine (FV) or fructosyl valylhistidine (FVH) were shown in FIG. 3. For fructosyl glycine the activity was high at pH 8.0, but the activity at pH 6.0 was decreased to about 50% of that at pH 8.0. For fructosyl valine and fructosyl valylhistidine, the activity was high at pH 6.0 and 7.0.
Response values in Table 1 were normalized to 100 for the response to fructosyl valine at each pH.

Row | Structure (SMILES) | Relative response value [1] | Relative activity (%) [2] [%] | Relative response value [3] | Relative activity (%) pH 6.0 [4] [%] | Relative activity (%) pH 7.0 [4] [%] | Relative activity (%) pH 8.0 [4] [%] | response of fructosyl amino acid oxidase-immobilized column [1] | pH at which activity was maximized ([4]; buffer pH 6.0, 7.0 or 8.0 tested)
1 | NCC(=O)O [Gly] | 0.0 | 0.0 | 0.0 | 0 | 0 | 0 | – | –
2 | O=C(O)[C@@H]1CCCN1 [Pro] | 0.0 | 2.0 | 0.0 | 0 | 0 | 0 | – | –
3 | O=C(CO)[C@@H](O)[C@H](O)[C@H](O)CO [Fructose] | 0.0 | 1.0 | 0.0 | 0 | 0 | 0 | – | –
4 | N=C(N)NCCC[C@H](N)C(=O)O [Arg] | 0.0 | 1.0 | 0.0 | 0 | 0 | 0 | – | –
5 | OC[C@@H](O)[C@@H](O)[C@H](O)[C@@H](O)CO [D-Sorbitol] | 0.0 | 0.0 | 0.0 | 0 | 0 | 0 | – | –
6 | N[C@@H](CC(=O)O)C(=O)O [Asp] | 0.0 | 0.0 | 0.0 | 0 | 0 | 0 | – | –
7 | CC(C)[C@H](NC1(CO)O[C@H](CO)[C@@H](O)[C@@H]1O)C(=O)N[C@@H](Cc1c[nH]cn1)C(=O)O (stereo partly shown) [Fructosyl valyl histidine] | 1.3 | – | 86.8 | 88 | 87 | 66 | scarcely responded | 7.0
8 | N[C@@H](Cc1ccccc1)C(=O)O [Phe] | 0.0 | 0.0 | 0.0 | 0 | 0 | 0 | – | –
9 | NC(=O)C[C@H](N)C(=O)O [Asn] | 0.0 | 0.0 | 0.0 | 0 | 0 | 0 | – | –
10 | CC(C)[C@H](N)C(=O)O [Val] | 0.0 | 0.0 | 0.0 | 0 | 0 | 0 | – | –
11 | N[C@@H](CCC(=O)O)C(=O)O [Glu] | 0.0 | 0.0 | 0.0 | 0 | 0 | 0 | – | –
12 | O=C[C@H](O)[C@@H](O)[C@@H](O)[C@H](O)CO [Galactose] | 0.0 | 0.0 | 0.0 | 0 | 0 | 0 | – | –
13 | NC(=O)CC[C@H](N)C(=O)O [Gln] | 0.2 | 6.0 | 0.0 | 0 | 0 | 0 | extremely small responses | –
14 | N[C@@H](CO)C(=O)O [Ser] | 0.0 | 0.0 | 0.0 | 0 | 0 | 0 | – | –
15 | N[C@@H](Cc1c[nH]cn1)C(=O)O [His] | 0.0 | 0.0 | 0.0 | 0 | 0 | 0 | – | –
16 | CSCC[C@H](N)C(=O)O [Met] | 0.1 | 8.0 | 0.0 | 0 | 0 | 0 | extremely small responses | –
17 | CC(C)C[C@H](N)C(=O)O [Leu] | 0.0 | 0.0 | 0.0 | 0 | 0 | 0 | – | –
18 | NCCCC[C@H](N)C(=O)O [Lys] | 0.0 | 41.0 | 0.0 | 0 | 0 | 0 | – | –
19 | C[C@@H](O)[C@H](N)C(=O)O [Thr] | 0.0 | 2.0 | 0.0 | 0 | 0 | 0 | – | –
20 | N[C@@H](CS)C(=O)O [Cys] | – | 507.0 | – | – | – | – | – | –
